Experimental data reported in patent publication US20240317708A1, “INHIBITORS OF TRANSGLUTAMINASES” (ZEDIRA GMBH, priority 2021, published 2024).

What was measured:
[1] = Log D shake flask method (octanol / PBS pH 7.4, HPLC); format: physicochemical; conditions: octanol/phosphate-buffered saline (PBS); octanol / PBS pH 7.4, shake flask
Experimental: In order to classify the inventive compounds according to their lipophilicity, Log D values (distribution coefficient) were determined by means of the well-established shake flask method, measuring the partition of a compound between an octanol and phosphate-buffered saline (PBS, pH 7.4) by HPLC.

[2] = Caco-2 permeability assay (CacoReady kit); format: in vitro ADME; conditions: human
In short: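 Apparent permeability coefficients (Papp) were measured across Caco-2 cell barriers using a ready-to-use kit run per the supplier's protocol. Values serve as a predictor of oral/intestinal bioavailability.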

[3] = biological target: T1, recombinant human transglutaminase 2 (Homo sapiens, UniProt P21980); test: Transglutaminase assay (dansylcadaverine incorporation into dimethylcasein, DCC-assay); format: biochemical; conditions: recombinant human TG2 10 nM, dansylcadaverine/dimethylcasein, 37° C.
T1 construct: purchased Zedira T022
T1 sequence (P21980 1-687): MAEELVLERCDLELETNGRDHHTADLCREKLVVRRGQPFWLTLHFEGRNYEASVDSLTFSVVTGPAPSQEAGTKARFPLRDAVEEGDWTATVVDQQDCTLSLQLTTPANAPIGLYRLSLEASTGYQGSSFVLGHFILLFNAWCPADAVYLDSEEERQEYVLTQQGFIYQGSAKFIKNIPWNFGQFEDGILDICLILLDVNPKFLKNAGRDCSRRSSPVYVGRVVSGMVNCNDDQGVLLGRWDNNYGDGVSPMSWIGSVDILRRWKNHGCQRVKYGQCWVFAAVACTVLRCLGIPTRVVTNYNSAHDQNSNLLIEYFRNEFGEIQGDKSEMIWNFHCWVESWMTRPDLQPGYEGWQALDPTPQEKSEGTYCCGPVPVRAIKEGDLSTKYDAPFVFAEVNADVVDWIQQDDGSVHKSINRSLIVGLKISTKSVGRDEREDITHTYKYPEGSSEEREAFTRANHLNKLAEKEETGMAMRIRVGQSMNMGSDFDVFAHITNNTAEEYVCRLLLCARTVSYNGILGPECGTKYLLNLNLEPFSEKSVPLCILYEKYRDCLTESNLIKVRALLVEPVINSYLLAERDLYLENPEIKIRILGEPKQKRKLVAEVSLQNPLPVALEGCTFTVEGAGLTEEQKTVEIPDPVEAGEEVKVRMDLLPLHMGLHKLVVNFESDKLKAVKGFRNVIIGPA
In short: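 IC50 derived from fluorescence slope between 20 and 30 min (λex 330 nm, λem 500 nm, 37 °C), expressed relative to a 2% DMSO control. Reaction: 10 nM recombinant human TG2, 4 μM dimethylcasein, 16.7 μM dansylcadaverine, 10 mM CaCl2 and glutathione, pH 8.0.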

Structure (SMILES)	logD [1]	Papp [2] [×10⁻⁶ cm/s]	IC50 [3] [nM]
COC(=O)/C=C/CC[C@H](NC(=O)[C@H]1CCNC1)C(=O)Nc1cccn(CC(=O)NC2C3CC4CC(C3)CC2C4)c1=O (stereo partly drawn) [III-26, (S,E)-methyl 7-(1-(2-(2-adamantylamino)-2-oxoethyl)-2-oxo-1,2-dihydropyridin-3-ylamino)-7-oxo-6-((S)-pyrrolidine-3-carboxamido)hept-2-enoate]	1 to 3	1 to 10	25 to 250
COC(=O)/C=C/CC[C@H](NC(=O)c1ccnnc1)C(=O)Nc1cccn(CC(=O)NC2C3CC4CC(C3)CC2C4)c1=O (stereo partly drawn) [III-85, (S,E)-methyl 7-(1-(2-(2-adamantylamino)-2-oxoethyl)-2-oxo-1,2-dihydropyridin-3-ylamino)-7-oxo-6-(pyridazine-4-carboxamido)hept-2-enoate]	1 to 3	< 1	< 25
COC(=O)/C=C/CC[C@H](NC(=O)c1cncc([N+](=O)[O-])c1)C(=O)Nc1cccn(CC(=O)NC2C3CC4CC(C3)CC2C4)c1=O (stereo partly drawn) [III-34, (S,E)-methyl 7-(1-(2-(2-adamantylamino)-2-oxoethyl)-2-oxo-1,2-dihydropyridin-3-ylamino)-6-(5-nitronicotinamido)-7-oxohept-2-enoate]	3 to 5	< 1	< 25
CCN(CC)C(=O)/C=C/CC[C@H](NC(=O)c1coc(C(C)=O)n1)C(=O)Nc1cccn(CC(=O)NC23CC(C2)C3)c1=O [III-138, (S,E)-6-(2-acetyloxazole-4-carboxamido)-N7-(1-(2-(bicyclo[1.1.1]pentan-1-ylamino)-2-oxoethyl)-2-oxo-1,2-dihydropyridin-3-yl)-N1,N1-diethylhept-2-enediamide]	< 1	< 1	250 to 1500
COC(=O)/C=C/CC[C@H](NC(=O)c1ncn(C)n1)C(=O)Nc1cccn(CC(=O)NC2C3CC4CC(C3)CC2C4)c1=O (stereo partly drawn) [III-105, (S,E)-methyl 7-(1-(2-(2-adamantylamino)-2-oxoethyl)-2-oxo-1,2-dihydropyridin-3-ylamino)-6-(1-methyl-1H-1,2,4-triazole-3-carboxamido)-7-oxohept-2-enoate]	1 to 3	1 to 10	25 to 250
COC(=O)/C=C/CC[C@H](NC(=O)c1snnc1C)C(=O)Nc1cccn(CC(=O)NC2C3CC4CC(C3)CC2C4)c1=O (stereo partly drawn) [III-118, (S,E)-methyl 7-(1-(2-(2-adamantylamino)-2-oxoethyl)-2-oxo-1,2-dihydropyridin-3-ylamino)-6-(4-methyl-1,2,3-thiadiazole-5-carboxamido)-7-oxohept-2-enoate]	1 to 3	< 1	< 25
CC(=O)/C=C/CC[C@H](NC(=O)c1ncn(C)n1)C(=O)Nc1cccn(CC(=O)NC2C3CCCC2CC3)c1=O (stereo partly drawn) [III-159, N-((2S,E)-1-(1-(2-(bicyclo[3.2.1]octan-8-ylamino)-2-oxoethyl)-2-oxo-1,2-dihydropyridin-3-ylamino)-1,7-dioxooct-5-en-2-yl)-1-methyl-1H-1,2,4-triazole-3-carboxamide]	< 1	< 1	250 to 1500
COC(=O)/C=C/CC[C@H](NC(=O)c1sc(C(F)(F)F)nc1C)C(=O)Nc1cccn(CC(=O)N[C@@H]2C[C@@H]3CC[C@H]2C3)c1=O [III-125, (S,E)-methyl 7-(1-(2-((1S,2R,4R)-bicyclo[2.2.1]heptan-2-ylamino)-2-oxoethyl)-2-oxo-1,2-dihydropyridin-3-ylamino)-6-(4-methyl-2-(trifluoromethyl)thiazole-5-carboxamido)-7-oxohept-2-enoate]	1 to 3	1 to 10	< 25

The next lines start with the values.

logD [1]	Papp [2] [×10⁻⁶ cm/s]	IC50 [3] [nM]	Structure (SMILES)
1 to 3	< 1	25 to 250	COC(=O)/C=C/CC[C@H](NC(=O)c1ccnn1C)C(=O)Nc1cccn(CC(=O)N[C@H]2C[C@H]3CC[C@]2(C)C3(C)C)c1=O [III-122, (S,E)-methyl 6-(1-methyl-1H-pyrazole-5-carboxamido)-7-oxo-7-(2-oxo-1-(2-oxo-2-((1R,2S,4R)-1,7,7-trimethylbicyclo[2.2.1]heptan-2-ylamino)ethyl)-1,2-dihydropyridin-3-ylamino)hept-2-enoate]
3 to 5	1 to 10	< 25	COC(=O)/C=C/CC[C@H](NC(=O)c1[nH]c2ccccc2c1C)C(=O)Nc1cccn(CC(=O)NC2C3CC4CC(C3)CC2C4)c1=O (stereo partly drawn) [III-10, (S,E)-methyl 7-(1-(2-(2-adamantylamino)-2-oxoethyl)-2-oxo-1,2-dihydropyridin-3-ylamino)-6-(3-methyl-1H-indole-2-carboxamido)-7-oxohept-2-enoate]
< 1	< 1	25 to 250	COC(=O)/C=C/CC[C@H](NC(=O)c1cnsn1)C(=O)Nc1cccn(CC(=O)NC23CC(C2)C3)c1=O [III-173, (S,E)-methyl 7-(1-(2-(bicyclo[1.1.1]pentan-1-ylamino)-2-oxoethyl)-2-oxo-1,2-dihydropyridin-3-ylamino)-7-oxo-6-(1,2,5-thiadiazole-3-carboxamido)hept-2-enoate]
3 to 5	1 to 10	< 25	COC(=O)/C=C/CC[C@H](NC(=O)c1oc2ccccc2c1C)C(=O)Nc1cccn(CC(=O)NC23CC4(C)CC(C)(CC(C)(C4)C2)C3)c1=O [III-92, (S,E)-methyl 7-(1-(2-(3,5,7-trimethyl-1-adamantylamino)-2-oxoethyl)-2-oxo-1,2-dihydropyridin-3-ylamino)-6-(3-methylbenzofuran-2-carboxamido)-7-oxohept-2-enoate]
3 to 5	1 to 10	< 25	COC(=O)/C=C/CC[C@H](NC(=O)c1oc2ccccc2c1C)C(=O)Nc1cccn(CC(=O)NC2C3CC4CC(C3)CC2C4)c1=O (stereo partly drawn) [III-2, (S,E)-methyl 7-(1-(2-(2-adamantylamino)-2-oxoethyl)-2-oxo-1,2-dihydropyridin-3-ylamino)-6-(3-methylbenzofuran-2-carboxamido)-7-oxohept-2-enoate]
3 to 5	< 1	< 25	COC(=O)/C=C/CC[C@H](NC(=O)c1cc2ccccc2[nH]1)C(=O)Nc1cccn(CC(=O)NC2C3CC4CC(C3)CC2C4)c1=O (stereo partly drawn) [III-8, (S,E)-methyl 6-(1H-indole-2-carboxamido)-7-(1-(2-(2-adamantylamino)-2-oxoethyl)-2-oxo-1,2-dihydropyridin-3-ylamino)-7-oxohept-2-enoate]
3 to 5	1 to 10	< 25	COC(=O)/C=C/CC[C@H](NC(=O)c1sc(C(F)(F)F)nc1C)C(=O)Nc1cccn(CC(=O)N[C@H]2C[C@H]3CC[C@]2(C)C3(C)C)c1=O [III-127, (S,E)-methyl 6-(4-methyl-2-(trifluoromethyl)thiazole-5-carboxamido)-7-oxo-7-(2-oxo-1-(2-oxo-2-((1R,2S,4R)-1,7,7-trimethylbicyclo[2.2.1]heptan-2-ylamino)ethyl)-1,2-dihydropyridin-3-ylamino)hept-2-enoate]
3 to 5	1 to 10	< 25	COC(=O)/C=C/CC[C@H](NC(=O)c1cc2ccccc2s1)C(=O)Nc1cccn(CC(=O)NC2C3CC4CC(C3)CC2C4)c1=O (stereo partly drawn) [III-5, (S,E)-methyl 6-(benzo[b]thiophene-2-carboxamido)-7-(1-(2-(2-adamantylamino)-2-oxoethyl)-2-oxo-1,2-dihydropyridin-3-ylamino)-7-oxohept-2-enoate]
1 to 3	< 1	< 25	COC(=O)/C=C/CC[C@H](NC(=O)c1cncn1C)C(=O)Nc1cccn(CC(=O)N[C@@H]2C[C@H]3CC[C@@H]2C3)c1=O [III-62, (S,E)-methyl 7-(1-(2-((1R,2R,4S)-bicyclo[2.2.1]heptan-2-ylamino)-2-oxoethyl)-2-oxo-1,2-dihydropyridin-3-ylamino)-6-(1-methyl-1H-imidazole-5-carboxamido)-7-oxohept-2-enoate]
1 to 3	< 1	< 25	COC(=O)/C=C/CC[C@H](NC(=O)c1cccnn1)C(=O)Nc1cccn(CC(=O)NC2C3CC4CC(C3)CC2C4)c1=O (stereo partly drawn) [III-86, (S,E)-methyl 7-(1-(2-(2-adamantylamino)-2-oxoethyl)-2-oxo-1,2-dihydropyridin-3-ylamino)-7-oxo-6-(pyridazine-3-carboxamido)hept-2-enoate]
